The assay deals with T1, DPP-IV (Homo sapiens, UniProt P27487).
T1 construct: Soluble human DPP-IV lacking the transmembrane anchor (Gly31-Pro766); Pre-Pro-alpha-mating factor leader (secretion signal) (N, cleaved yes); made in house
The assay is described as follows: Inhibition of DPP-IV peptidase activity, continuous fluorimetric assay (cleavage of Gly-Pro-AMC). The format is biochemical. As for the experimental part: Inhibition of DPP-IV peptidase activity was monitored with a continuous fluorimetric assay. This assay is based on the cleavage of the substrate Gly-Pro-AMC (Bachem) by DPP-IV, releasing free AMC. The assay is carried out in 96-well microtiter plates. In a total volume of 100 μL, compounds are preincubated with […] DPP-IV employing a buffer containing 10 mM Hepes, 150 mM NaCl, 0.005% Tween 20 (pH 7.4). […] The final concentration of DMSO is 1%. The inhibitory potential of the compounds were determined.
Soluble human DPP-IV lacking the transmembrane anchor (Gly31-Pro766) was expressed in a recombinant YEAST-strain as Pre-Pro-alpha-mating fusion. The secreted product (rhuDPP-IV-Gly31-Pro766) was purified from fermentation broth (>90% purity).

Each structure is given as a SMILES string. pIC50: −log10 of the molar value. Where only a bound is given, the exact number is not on record here.

T1 sequence (P27487 31-766): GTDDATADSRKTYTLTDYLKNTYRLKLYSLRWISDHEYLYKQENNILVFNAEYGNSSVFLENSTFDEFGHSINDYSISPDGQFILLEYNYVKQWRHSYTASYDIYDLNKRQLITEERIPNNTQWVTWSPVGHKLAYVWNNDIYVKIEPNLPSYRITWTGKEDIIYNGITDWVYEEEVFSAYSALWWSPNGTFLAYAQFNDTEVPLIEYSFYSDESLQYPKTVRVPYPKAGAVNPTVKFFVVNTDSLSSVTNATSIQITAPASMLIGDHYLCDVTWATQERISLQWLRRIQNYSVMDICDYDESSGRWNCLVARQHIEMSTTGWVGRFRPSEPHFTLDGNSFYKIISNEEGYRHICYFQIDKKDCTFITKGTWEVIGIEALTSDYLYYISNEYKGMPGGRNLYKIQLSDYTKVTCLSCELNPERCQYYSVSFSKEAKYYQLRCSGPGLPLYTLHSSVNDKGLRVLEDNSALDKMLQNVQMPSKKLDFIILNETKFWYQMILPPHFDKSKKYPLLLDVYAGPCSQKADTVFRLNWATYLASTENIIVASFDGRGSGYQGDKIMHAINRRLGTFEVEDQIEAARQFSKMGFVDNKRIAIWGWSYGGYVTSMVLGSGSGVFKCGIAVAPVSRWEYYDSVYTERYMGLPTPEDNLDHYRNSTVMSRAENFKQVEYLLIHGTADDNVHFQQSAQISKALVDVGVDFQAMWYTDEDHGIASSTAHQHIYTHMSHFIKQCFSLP

As to `N[C@@H](Cc1cc(F)ccc1F)C1CCN(C(=O)c2cnccn2)CC1` (single isomer, unassigned) [Example 44], the pIC50 is 6.00 to 7.00.

In the case of `N[C@@H](Cc1cc(F)ccc1F)C1CCN(C(=O)c2ccc(C(F)(F)F)nc2)CC1` (single isomer, unassigned) [Example 47], the pIC50 was 5.70 to 6.00. For `N[C@@H](Cc1cc(F)ccc1F)C1CCN(C(=O)c2ccnc(C(F)(F)F)n2)CC1` (single isomer, unassigned) [Example 50], the pIC50 is 6.00 to 7.00. Take `N[C@@H](Cc1cc(F)ccc1F)C1CCN(C(=O)c2ccnn2C(F)F)CC1` (single isomer, unassigned) [Example 53]: the pIC50 was 5.70 to 6.00. `N[C@@H](Cc1cc(F)c(F)cc1F)C1CCN(C(=O)c2ccnc(C(F)(F)F)n2)CC1` (single isomer, unassigned) [Example 65]: the pIC50 was 5.70 to 6.00. The result for `N[C@H](Cc1cccc(Cl)c1)C1CCNCC1` (stereo in doubt) [Example 7, 2-(3-Chloro-phenyl)-1-piperidin-4-yl-ethylamine] reads 6.00 to 7.00. Take `CC(C)(C)OC(=O)N1CCC(C(N)Cc2cccc(Cl)c2)CC1` (centres unmarked) [Example 6, 4-[1-Amino-2-(3-chloro-phenyl)-ethyl]-piperidine-1-carboxylic acid tert.-butyl ester]: the pIC50 is 6.00 to 7.00. As for `N[C@H](Cc1cccc(Cl)c1)C1CCN(C(=O)c2ncccn2)CC1` [Example 8, {4-[(R)-1-Amino-2-(3-chloro-phenyl)-ethyl]-piperidin-1-yl}-pyrimidin-2-yl-methanone], the negative-log IC50 (pIC50) is over 7.00. Consider `NC(Cc1cccc(Cl)c1)C1CCN(C(=O)C2CC2)CC1` (centres unmarked) [Example 9], for which the pIC50 was 6.00 to 7.00. For `NC(Cc1cccc(Cl)c1)C1CCN(C(=O)c2ccccc2)CC1` (centres unmarked) [Example 10] the value was over 7.00; for `NC(Cc1cccc(Cl)c1)C1CCN(C(=O)c2cccnc2)CC1` (centres unmarked) [Example 11], over 7.00. `NC(Cc1cccc(Cl)c1)C1CCN(C(=O)CC2CC2)CC1` (centres unmarked) [Example 12] showed a negative-log IC50 (pIC50) of 6.00 to 7.00. As to `NC(Cc1cccc(Cl)c1)C1CCN(C(=O)C2CCOC2)CC1` (centres unmarked) [Example 13], the pIC50 is 6.00 to 7.00. Compound `NC(Cc1cccc(Cl)c1)C1CCN(C(=O)Cc2ccccc2)CC1` (centres unmarked) [Example 14] had a pIC50 of 6.00 to 7.00. With `NC(Cc1cccc(Cl)c1)C1CCN(C(=O)c2cnccn2)CC1` (centres unmarked) [Example 15], the pIC50 was over 7.00. Regarding `NC(Cc1cccc(Cl)c1)C1CCN(C(=O)C2(C(F)(F)F)CC2)CC1` (centres unmarked) [Example 16], the negative-log IC50 (pIC50) is 6.00 to 7.00. For `NC(Cc1cccc(Cl)c1)C1CCN(C(=O)c2ccc(C(F)(F)F)nc2)CC1` (centres unmarked) [Example 17] the value was over 7.00. For `NC(Cc1cccc(Cl)c1)C1CCN(C(=O)c2cn[nH]c2)CC1` (centres unmarked) [Example 18] the value was 6.00 to 7.00.

On to `Cn1cc(C(=O)N2CCC(C(N)Cc3cccc(Cl)c3)CC2)c(C(F)(F)F)n1` (centres unmarked) [Example 19], for which the pIC50 was over 7.00. For `NC(Cc1cccc(Cl)c1)C1CCN(C(=O)c2ncccn2)CC1` (centres unmarked) [Example 20] the value was over 7.00. `N[C@@H](Cc1cccc(Cl)c1)C1CCN(C(=O)c2ncccn2)CC1` [Example 21] had a pIC50 of 5.70 to 6.00. In turn, `NC(Cc1cccc(Cl)c1)C1CCN(C(=O)c2ccnnc2)CC1` (centres unmarked) [Example 22] had a pIC50 of over 7.00. The result for `NC(Cc1cccc(Cl)c1)C1CCN(C(=O)c2cncnc2)CC1` (centres unmarked) [Example 23] reads over 7.00; that for `Cc1cc(C(=O)N2CCC(C(N)Cc3cccc(Cl)c3)CC2)no1` (centres unmarked) [Example 24], over 7.00; that for `NC(Cc1cccc(Cl)c1)C1CCN(C(=O)c2ccnn2C(F)F)CC1` (centres unmarked) [Example 25], over 7.00. For `NC(Cc1cccc(Cl)c1)C1CCN(C(=O)c2ccn(C(F)F)n2)CC1` (centres unmarked) [Example 26], the pIC50 is over 7.00.

As to `Cn1cncc1C(=O)N1CCC(C(N)Cc2cccc(Cl)c2)CC1` (centres unmarked) [Example 27], the pIC50 was over 7.00. Consider `Cn1ncc(C(=O)N2CCC(C(N)Cc3cccc(Cl)c3)CC2)c1C(F)(F)F` (centres unmarked) [Example 28], for which the pIC50 is over 7.00. In turn, `Cn1cnc(C(=O)N2CCC(C(N)Cc3cccc(Cl)c3)CC2)c1` (centres unmarked) [Example 29] had a negative-log IC50 (pIC50) of 6.00 to 7.00.

The compound `Cn1nc(C(=O)N2CCC(C(N)Cc3cccc(Cl)c3)CC2)cc1C(F)(F)F` (centres unmarked) [Example 30] had a pIC50 of over 7.00.

For `Cn1nc(C(F)(F)F)cc1C(=O)N1CCC(C(N)Cc2cccc(Cl)c2)CC1` (centres unmarked) [Example 31], the pIC50 was 6.00 to 7.00. Compound `NC(Cc1cccc(Cl)c1)C1CCN(C(=O)c2cnccc2C(F)(F)F)CC1` (centres unmarked) [Example 32] showed a pIC50 of over 7.00. The compound `NC(Cc1cccc(Cl)c1)C1CCN(C(=O)c2cc(C(F)(F)F)n[nH]2)CC1` (centres unmarked) [Example 33] showed a pIC50 of 6.00 to 7.00.

In the case of `NC(Cc1cccc(Cl)c1)C1CCN(S(=O)(=O)C2CC2)CC1` (centres unmarked) [Example 34, 2-(3-Chloro-phenyl)-1-(1-cyclopropanesulphonyl-piperidin-4-yl)-ethylamine], the pIC50 was over 7.00. `NC(Cc1cccc(Cl)c1)C1CCN(S(=O)(=O)c2ccccc2)CC1` (centres unmarked) [Example 35] showed a pIC50 of over 7.00. For `NC(Cc1cccc(Cl)c1)C1CCN(S(=O)(=O)Cc2ccccc2)CC1` (centres unmarked) [Example 36] the value was over 7.00; for `NC(Cc1cc(F)ccc1F)C1CCN(S(=O)(=O)C2CC2)CC1` (centres unmarked) [Example 37], over 7.00; for `N[C@H](Cc1cc(F)ccc1F)C1CCN(S(=O)(=O)C2CC2)CC1` [Example 38], over 7.00. The result for `N[C@@H](Cc1cc(F)ccc1F)C1CCN(S(=O)(=O)C2CC2)CC1` [Example 39] reads 6.00 to 7.00; that for `CC(C)(C)OC(=O)N1CCC(C(N)Cc2cc(F)ccc2F)CC1` (centres unmarked) [Example 40, 4-[1-Amino-2-(2,5-difluoro-phenyl)-ethyl]-piperidine-1-carboxylic acid tert-butyl ester], over 7.00; that for `N[C@H](Cc1cc(F)ccc1F)C1CCN(C(=O)c2ncccn2)CC1` [Example 41], over 7.00. Take `N[C@@H](Cc1cc(F)ccc1F)C1CCN(C(=O)c2ncccn2)CC1` [Example 42]: the pIC50 is 5.70 to 6.00.

Regarding `N[C@H](Cc1cc(F)ccc1F)C1CCN(C(=O)c2cnccn2)CC1` [Example 43], the pIC50 is over 7.00. In the case of `NC(Cc1cc(F)ccc1F)C1CCN(C(=O)c2cnccn2)CC1` (centres unmarked) [Example 45], the pIC50 was over 7.00. For `N[C@H](Cc1cc(F)ccc1F)C1CCN(C(=O)c2ccc(C(F)(F)F)nc2)CC1` [Example 46] the value was over 7.00; for `NC(Cc1cc(F)ccc1F)C1CCN(C(=O)c2ccc(C(F)(F)F)nc2)CC1` (centres unmarked) [Example 48], over 7.00. Turning to `N[C@H](Cc1cc(F)ccc1F)C1CCN(C(=O)c2ccnc(C(F)(F)F)n2)CC1` [Example 49], the pIC50 was over 7.00.

`NC(Cc1cc(F)ccc1F)C1CCN(C(=O)c2ccnc(C(F)(F)F)n2)CC1` (centres unmarked) [Example 51] had a pIC50 of over 7.00. In the case of `N[C@H](Cc1cc(F)ccc1F)C1CCN(C(=O)c2ccnn2C(F)F)CC1` [Example 52], the pIC50 is over 7.00.

`NC(Cc1cc(F)ccc1F)C1CCN(C(=O)c2cnc(C(F)(F)F)nc2)CC1` (centres unmarked) [Example 54] gave a pIC50 of over 7.00. Take `NC(Cc1cc(F)ccc1F)C1CCN(C(=O)c2ncc(F)cc2F)CC1` (centres unmarked) [Example 55]: the pIC50 is over 7.00. For `NC(Cc1cc(F)ccc1F)C1CCN(C(=O)c2ccn(C(F)F)n2)CC1` (centres unmarked) [Example 56], the pIC50 was over 7.00. The result for `NC(Cc1cc(F)ccc1F)C1CCN(C(=O)c2ncccc2C(F)(F)F)CC1` (centres unmarked) [Example 57] reads over 7.00; that for `NC(Cc1cc(F)ccc1F)C1CCN(C(=O)c2cc(C(F)(F)F)ccn2)CC1` (centres unmarked) [Example 58], over 7.00. As to `NC(Cc1cc(F)ccc1F)C1CCN(C(=O)c2cccc(C(F)(F)F)n2)CC1` (centres unmarked) [Example 59], the pIC50 is over 7.00. Turning to `N[C@H](Cc1cc(F)ccc1F)C1CCN(C(=O)c2nccc(C(F)(F)F)n2)CC1` [Example 60], the pIC50 was over 7.00.

`N[C@@H](Cc1cc(F)ccc1F)C1CCN(C(=O)c2nccc(C(F)(F)F)n2)CC1` [Example 61]: the pIC50 is 6.00 to 7.00.

In the case of `N[C@H](Cc1cc(F)c(F)cc1F)C1CCN(C(=O)c2ncccn2)CC1` [Example 63, {4-[(R)-1-amino-2-(2,4,5-trifluoro-phenyl)-ethyl]-piperidine-1yl}-pyrimidine-2-yl-methanone], the pIC50 was over 7.00. Compound `N[C@H](Cc1cc(F)c(F)cc1F)C1CCN(C(=O)c2ccnc(C(F)(F)F)n2)CC1` [Example 64] gave a pIC50 of over 7.00. `NC(Cc1cc(F)c(F)cc1F)C1CCN(C(=O)c2ccnc(C(F)(F)F)n2)CC1` (centres unmarked) [Example 66] had a pIC50 of over 7.00. Consider `N[C@H](Cc1cc(F)c(F)cc1F)C1CCN(C(=O)c2ccc(C(F)(F)F)nc2)CC1` [Example 67], for which the pIC50 was over 7.00. `N[C@H](Cc1cc(F)cc(F)c1F)C1CCN(C(=O)c2ncccn2)CC1` [Example 68]: the pIC50 is 6.00 to 7.00. Take `N[C@H](Cc1cc(F)cc(F)c1F)C1CCN(C(=O)c2ccnc(C(F)(F)F)n2)CC1` [Example 69]: the pIC50 is over 7.00. As for `CC(C)(C)OC(=O)N1CCCC(C(N)Cc2cccc(Cl)c2)C1` (centres unmarked) [Example 70, 3-[1-Amino-2-(3-chloro-phenyl)-ethyl]-piperidine-1-carboxylic acid tert.-butyl ester], the pIC50 was 6.00 to 7.00. `NC(Cc1cccc(Cl)c1)C1CCCNC1` (centres unmarked) [Example 71, 2-(3-Chloro-phenyl)-1-piperidin-3-yl-ethylamine]: the pIC50 was 5.70 to 6.00.

Broadly, the pIC50 is the IC50 on a negative log10 scale, so that one unit is a factor of ten. A low value points to a high IC50.
